{"source": "patent US5091191A", "about": "(Yoshitomi Pharmaceutical Industries, Ltd., priority 1988, dated 1992)", "key": {"[1]": {"assay": "Behaviour of finely-powdered Compound in weakly acid solution", "type": "physicochemical"}, "[2]": {"assay": "Solubility of the Compound at different pH values (FIG. 1)", "type": "physicochemical", "conditions": "weakly acid to neutral, about pH 3 to about pH 7", "description": "FIG. 1 is a graph showing the solubility of the Compound at different ph valves. FIGS. 2, 3 and 4 are the graphs showing the dissolution test results of the Compound and the tablets of Reference Example 1, the fine granules of Example 1 and the tablets of Example 2, respectively."}}, "data": [{"smiles": "Cc1ccc(-n2ccnc2)cc1C(O)c1c(C)cc(C(=O)[O-])cc1C.[Na+]", "note": "(stereo not drawn)", "values": [{"measurement": "conversion to corresponding free acid", "setting": "[1]; added to a weakly acid solution", "result": "the corresponding free acid was produced through chemical reaction"}, {"measurement": "dissolution-improving effect of finely-powdering", "setting": "[1]; weakly acid solution", "result": "there was not found any dissolution-improving effect"}, {"measurement": "solubility", "setting": "[2]", "result": "lowered under weakly acid to neutral conditions"}]}]}
